From patent publication US10214492B2, “Heterocyclic inhibitors of MCT4” (Vettore, LLC, priority 2016, dated 2019)

Legend:
MCT4 = MCT4 (Homo sapiens (Human), UniProt O15427); test: Assay 3: MCT4-mediated lactate transport in MDA-MB-231 breast cancer cells; format: cell-based; conditions: MDA-MB-231 cells; lactate transport
Procedure: (§1) 10 μL of a 30 mM DMSO stock of BCECF-AM ester (Life Technologies) is added and the cells are incubated at 37° C. for 5 min. The cells are pelleted (300 g, 5 min), washed once with 1 mL Tyrode's Solution, pH 7.4, re-pelleted (300 g, 5 min), and resuspended in 1 mL Tyrode's Solution, pH 7.4.
MCT4 activity may be assessed by monitoring the intracellular pH change that accompanies lactate/proton symport, using the pH-sensitive fluorescent dye 2′,7′-bis-(carboxyethyl)-5(6)-carboxyfluorescein (BCECF), in a manner similar to that previously reported for MCT1 and MCT4. The following is an exemplary procedure for assaying MCT4 activity of the compounds of Formula (I).

MCT1 = MCT1 (Homo sapiens (Human), UniProt P53985); test: Assay 4: MCT1-mediated lactate transport in BT20 breast cancer cells; format: cell-based; conditions: Table 27
Procedure: as §1
Assay 4: MCT1-Mediated Lactate Transport in BT20 Breast Cancer Cells.
Preparation of BCECF loaded cells are as described for Assay 1. Lactate transport assay is as described for Assay 1, except 10 mM L-lactate (rather than 50 mM) is added.

Sequence of MCT1 (P53985 whole entry): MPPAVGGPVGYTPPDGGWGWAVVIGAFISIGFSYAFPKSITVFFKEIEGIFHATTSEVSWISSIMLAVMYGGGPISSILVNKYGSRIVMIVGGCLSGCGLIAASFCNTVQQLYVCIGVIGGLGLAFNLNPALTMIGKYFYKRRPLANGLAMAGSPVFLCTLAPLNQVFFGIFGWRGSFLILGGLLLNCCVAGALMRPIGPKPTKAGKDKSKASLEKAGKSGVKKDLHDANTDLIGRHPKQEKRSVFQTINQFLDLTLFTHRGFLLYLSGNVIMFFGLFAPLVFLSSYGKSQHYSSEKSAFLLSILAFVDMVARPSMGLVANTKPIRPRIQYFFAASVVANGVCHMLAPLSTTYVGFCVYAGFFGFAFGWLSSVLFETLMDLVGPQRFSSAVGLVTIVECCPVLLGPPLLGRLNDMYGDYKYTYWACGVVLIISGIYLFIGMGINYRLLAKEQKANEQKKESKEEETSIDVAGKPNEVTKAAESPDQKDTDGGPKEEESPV
Sequence of MCT1 (P35613 140-385 partner): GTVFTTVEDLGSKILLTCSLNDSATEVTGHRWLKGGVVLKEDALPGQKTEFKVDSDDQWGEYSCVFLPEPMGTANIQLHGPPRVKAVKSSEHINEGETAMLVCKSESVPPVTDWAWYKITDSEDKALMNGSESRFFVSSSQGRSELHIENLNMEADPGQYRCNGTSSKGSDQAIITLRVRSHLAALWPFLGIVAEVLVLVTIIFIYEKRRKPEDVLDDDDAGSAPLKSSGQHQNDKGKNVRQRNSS
Sequence of MCT4 (O15427 whole entry, looked up): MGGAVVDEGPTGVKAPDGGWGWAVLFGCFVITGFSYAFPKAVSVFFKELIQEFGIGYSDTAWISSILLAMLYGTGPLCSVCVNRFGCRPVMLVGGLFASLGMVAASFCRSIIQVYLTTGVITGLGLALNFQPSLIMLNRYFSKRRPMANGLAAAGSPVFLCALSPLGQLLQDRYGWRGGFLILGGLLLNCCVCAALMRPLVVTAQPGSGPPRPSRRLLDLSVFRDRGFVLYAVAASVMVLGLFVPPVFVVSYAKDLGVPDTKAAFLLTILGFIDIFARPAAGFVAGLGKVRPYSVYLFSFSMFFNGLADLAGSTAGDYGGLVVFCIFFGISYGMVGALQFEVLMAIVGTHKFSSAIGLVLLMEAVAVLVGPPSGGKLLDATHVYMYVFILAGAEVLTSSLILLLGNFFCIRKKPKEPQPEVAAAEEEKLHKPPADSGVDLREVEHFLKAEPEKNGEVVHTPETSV
Sequence of MCT4 (P35613 whole entry partner, looked up): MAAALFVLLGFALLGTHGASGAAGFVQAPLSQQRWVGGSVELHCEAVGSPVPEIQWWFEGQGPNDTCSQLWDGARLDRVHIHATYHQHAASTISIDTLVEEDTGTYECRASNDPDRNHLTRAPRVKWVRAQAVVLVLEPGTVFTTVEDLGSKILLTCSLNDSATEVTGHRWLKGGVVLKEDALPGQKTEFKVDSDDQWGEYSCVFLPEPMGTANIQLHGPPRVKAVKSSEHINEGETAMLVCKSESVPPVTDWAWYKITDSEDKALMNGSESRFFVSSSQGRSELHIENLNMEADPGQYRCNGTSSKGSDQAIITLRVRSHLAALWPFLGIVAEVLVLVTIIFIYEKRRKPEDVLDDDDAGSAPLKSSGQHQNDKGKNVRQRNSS

IC50 (MCT4)	IC50 (MCT1)	Molecule
3.4 nM	12000 nM	CC(C)COc1cccc(-c2cc(COC(C)(C)C(=O)O)nn2-c2ccccc2Cl)c1 [Example 101, 2-([1-(2-Chlorophenyl)-5-[3-(2-methyl-propoxy)phenyl]-1H-pyrazol-3-yl)methoxy)-2-methylpropanoic acid]
15 nM	42000 nM	COc1ccccc1-n1nc(COC(C)(C)C(=O)O)cc1-c1cccc(OCC(C)C)c1 [Example 102, 2-([1-(2-Methoxyphenyl)-5-[3-(2-methylpropoxy)phenyl]-1H-pyrazol-3-yl]methoxy)-2-methylpropanoic acid]
2.6 nM	28000 nM	CC(C)COc1cccc(-c2cc(COC(C)(C)C(=O)O)nn2-c2ccccc2N(C)C)c1 [Example 103, 2-([1-[2-(Dimethylamino)phenyl]-5-[3-(2-methylpropoxy)phenyl]-1H-pyrazol-3-yl]methoxy)-2-methylpropanoic acid]
20 nM	12000 nM	CC(C)COc1cccc(-c2cc(COC(C)(C)C(=O)O)nn2-c2ccccc2)c1 [Example 104, 2-methyl-2-([5-[3-(2-methylpropoxy)phenyl]-1-phenyl-1H-pyrazol-3-yl]methoxy)propanoic acid]
7.6 nM	15000 nM	Cc1ccccc1-n1nc(COC(C)(C)C(=O)O)cc1-c1cccc(OCC(C)C)c1 [Example 105, 2-Methyl-2-([1-(2-methylphenyl)-5-[3-(2-methylpropoxy)phenyl]-1H-pyrazol-3-yl]methoxy]propanoic acid]
12 nM	21000 nM	CC(C)COc1cccc(-c2cc(COC(C)(C)C(=O)O)nn2-c2ccccc2F)c1 [Example 106, 2-([1-(2-fluorophenyl)-5-[3-(2-methyl-propoxy)phenyl]-1H-pyrazol-3-yl)methoxy)-2-methylpropanoic acid]
170 nM	9900 nM	CC(C)COc1cccc(-c2cc(COC(C)(C)C(=O)O)nn2Cc2ccc(N(C)C)cc2)c1 [Example 107, 2-[(1-[[4-(Dimethylamino)phenyl]methyl]-5-[3-(2-methylpropoxy)phenyl]-1H-pyrazol-3-yl)methoxy)-2-methylpropanoic acid]
36 nM	5200 nM	CC(C)COc1cccc(-c2cc(COC(C)(C)C(=O)O)nn2Cc2cccc(N(C)C)c2)c1 [Example 108, 2-[(1-[[3-(Dimethylamino)phenyl]-methyl]-5-[3-(2-methylpropoxy)phenyl]-1H-pyrazol-3-yl)methoxy)-2-methylpropanoic acid]
2.1 nM	> 11000 nM	CC(C)COc1cccc(-c2cc(COC(C)(C)C(=O)O)nn2Cc2ccccc2N(C)C)c1 [Example 109, 2-[(1-[[2-(Dimethylamino)phenyl]-methyl]-5-[3-(2-methylpropoxy)phenyl]-1H-pyrazol-3-yl)methoxy)-2-methylpropanoic acid]
7.9 nM	32000 nM	COc1ccccc1Cn1nc(COC(C)(C)C(=O)O)cc1-c1cccc(OC2CC2)c1 [Example 111, 2-([5-(3-Cyclopropoxyphenyl)-1-[(2-methoxyphenyl)methyl]-1H-pyrazol-3-yl)methoxy)-2-methylpropanoic acid]
29 nM	94000 nM	COc1ccccc1-n1nc(COC(C)(C)C(=O)O)cc1-c1cccc(OC2CC2)c1 [Example 112, 2-([5-(3-cyclopropoxyphenyl)-1-(2-methoxyphenyl)-1H-pyrazol-3-yl]methoxy)-2-methylpropanoic acid]
6.7 nM	33000 nM	COc1ccccc1-n1nc(COC(C)(C)C(=O)O)cc1-c1cccc(OC(C)C)c1 [Example 113, 2-([1-(2-Methoxyphenyl)-5-[3-(propan-2-yloxy)phenyl]-1H-pyrazol-3-yl]methoxy)-2-methylpropanoic acid]
4.3 nM	73000 nM	CN(C)c1ccccc1-n1nc(COC(C)(C)C(=O)O)cc1-c1cccc(OC2CC2)c1 [Example 114, 2-([5-(3-cyclopropoxyphenyl)-1-[2-(dimethylamino)phenyl]-1H-pyrazol-3-yl]methoxy)-2-methylpropanoic acid]
–	> 100000 nM	COc1cccc(-c2cc(COC(C)(C)C(=O)O)nn2-c2cccnc2)c1 [Example 115, 2-([5-(3-Methoxyphenyl)-1-(pyridin-3-yl)-1H-pyrazol-3-yl]methoxy)-2-methylpropanoic acid]
–	> 100000 nM	COc1cccc(-c2cc(COC(C)(C)C(=O)O)nn2-c2ccccc2F)c1 [Example 117, 2-([1-(2-Fluorophenyl)-5-(3-methoxyphenyl)-1H-pyrazol-3-yl]methoxy)-2-methylpropanoic acid]
–	50000 nM	COc1cccc(-c2cc(COC(C)(C)C(=O)O)nn2-c2ccccc2C)c1 [Example 118, 2-([5-(3-methoxyphenyl)-1-(2-methylphenyl)-1H-pyrazol-3-yl]methoxy)-2-methylpropanoic acid]

IC50 (MCT4)	IC50 (MCT1)	Molecule
–	65000 nM	COc1cccc(-c2cc(COC(C)(C)C(=O)O)nn2-c2ccccc2OC)c1 [Example 119, 22-([1-(2-Methoxyphenyl)-5-(3-methoxyphenyl)-1H-pyrazol-3-yl]methoxy)-2-methylpropanoic acid]
50 nM	2500 nM	CC[C@H](OCc1cc(-c2cccc(OC)c2)n(Cc2ccccc2Cl)n1)C(=O)O [Example 122, (2S)-2-([1-[(2-Chlorophenyl)methyl]-5-(3-methoxyphenyl)-1H-pyrazol-3-yl]methoxy)-butanoic acid]
1500 nM	11000 nM	CC[C@@H](OCc1cc(-c2cccc(OC)c2)n(Cc2ccccc2Cl)n1)C(=O)O [Example 123]
420 nM	31000 nM	COc1cccc(-c2cc(CO[C@@H](C)C(=O)O)nn2Cc2ccccc2Cl)c1 [Example 124, (2S)-2-([1-[(2-Chlorophenyl)methyl]-5-(3-methoxyphenyl)-1H-pyrazol-3-yl]methoxy)-propanoic acid]
5900 nM	–	COc1cccc(-c2cc(CO[C@H](C)C(=O)O)nn2Cc2ccccc2Cl)c1 [Example 125, (2R)-2-([1-[(2-Chlorophenyl)methyl]-5-(3-methoxyphenyl)-1H-pyrazol-3-yl]methoxy)-propanoic acid]
130 nM	35000 nM	COc1ccccc1-c1cc(COC(C)(C)C(=O)O)nn1Cc1ccccc1Cl [Example 126]
41 nM	15000 nM	COc1ccc(-c2cc(COC(C)(C)C(=O)O)nn2Cc2ccccc2Cl)cc1 [Example 127, 2-([1-[(2-Chlorophenyl)methyl]-5-(4-methoxyphenyl)-1H-pyrazol-3-yl]methoxy)-2-methylpropanoic acid]
1.2 nM	> 11000 nM	CC(C)COc1ccc(-c2cc(COC(C)(C)C(=O)O)nn2Cc2ccccc2Cl)s1 [Example 128, 2-([1-[(2-Chlorophenyl)methyl]-5-[5-(2-methylpropoxy)thien-2-yl]-1H-pyrazol-3-yl]methoxy)-2-methylpropanoic acid]
2.8 nM	16000 nM	CC(C)Oc1ccc(-c2cc(COC(C)(C)C(=O)O)nn2Cc2ccccc2Cl)s1 [Example 129, 2-([1-[(2-Chlorophenyl)methyl]-5-[5-(propan-2-yloxy)thien-2-yl]-1H-pyrazol-3-yl]methoxy)-2-methylpropanoic acid]
225 nM	650 nM	CC(C)(OCc1cc(-c2ccc(OC3CC3)s2)n(Cc2ccccc2Cl)n1)C(=O)O [Example 131, 2-([1-[(2-Chlorophenyl)methyl]-5-(5-cyclopropoxythien-2-yl)-1H-pyrazol-3-yl]methoxy)-2-methylpropanoic acid]
53 nM	220 nM	COc1cccc(OC)c1Cn1nc(COC(C)(C)C(=O)O)cc1-c1cccc(OCC(C)C)c1 [Example 135, 2-([1-[(2,6-Dimethoxyphenyl)methyl]-5-[3-(2-methylpropoxy)phenyl] 1H-pyrazol-3-yl]methoxy)-2-methylpropanoic acid]
–	> 33000 nM	COc1cccc(-c2cc(COC(C)(C)C(=O)O)nn2Cc2c(F)cccc2N(C)C)c1 [Example 136, 2-[(1-[(2-(Dimethylamino)-6-fluoro-phenyl]methyl]-5-(3-methoxyphenyl)-1H-pyrazol-3-yl)methoxy)-2-methylpropanoic acid]
–	8500 nM	COc1cc(OC)cc(-c2cc(COC(C)(C)C(=O)O)nn2-c2cccc(Cl)c2)c1 [Example 241, 2-([5-(3,5-Dimethoxyphenyl)-1-(3-chlorophenyl)-1H-pyrazol-3-yl]methoxy)-2-methylpropanoic acid]
–	57000 nM	COc1cc(OC)cc(-c2cc(COC(C)(C)C(=O)O)nn2-c2cccc(OC)c2)c1 [Example 242, 2-([5-(3,5-Dimethoxyphenyl)-1-(3-methoxyphenyl)-1H-pyrazol-3-yl]methoxy)-2-methylpropanoic acid]
–	> 100000 nM	Cn1cnc2ccc(-c3cc(COC(C)(C)C(=O)O)nn3Cc3ccccc3Cl)cc21 [Example 248, 2-([1-[(2-Chlorophenyl)methyl]-5-(1-methyl-1H-1,3-benzodiazol-6-yl)-1H-pyrazol-3-yl]methoxy)-2-methylpropanoic acid]
–	7300 nM	Cc1nn(C)c2c(-n3nc(COC(C)(C)C(=O)O)cc3-c3cccc(OCC(C)(C)C)c3)cccc12 [Example 255]

Molecule	IC50 (MCT4)	IC50 (MCT1)
2-((1-[(2-Chlorophenyl)methyl]-5-(4-cyclopropoxythien-2-yl)-1H-pyrazol-3-yl(methoxy)-2-methylpropanoic acid [Example 130]	98 nM	55 nM
